PubChem BioAssay (NCI)
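Growth conditions: 96-well plates. Treatment: test compound, 48 hours, 5 concentrations. Analysis: linear interpolation between bracketing concentrations; unreached endpoints set to highest concentration. The concentration for 50% growth inhibition is given as GI50. TGI: total growth inhibition.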

Key:
Experiment in all cases: inhibition of tumour cell growth, NCI panel, 48 h
HCT-116 colon = system: HCT-116 colon
KM12 colon = system: KM12 colon
LOX IMVI melanoma = system: LOX IMVI melanoma
M14 melanoma = system: M14 melanoma
NCI-H522 lung = system: NCI-H522 lung
RXF 393 renal = system: RXF 393 renal
SK-MEL-2 melanoma = system: SK-MEL-2 melanoma
SK-MEL-28 melanoma = system: SK-MEL-28 melanoma
SN12C renal = system: SN12C renal
UACC-62 melanoma = system: UACC-62 melanoma

Row | SMILES | GI50 (HCT-116 colon) | TGI (HCT-116 colon) | GI50 (KM12 colon) | TGI (KM12 colon) | GI50 (LOX IMVI melanoma) | TGI (LOX IMVI melanoma) | GI50 (M14 melanoma) | TGI (M14 melanoma) | GI50 (NCI-H522 lung) | TGI (NCI-H522 lung) | GI50 (RXF 393 renal) | TGI (RXF 393 renal) | GI50 (SK-MEL-2 melanoma) | TGI (SK-MEL-2 melanoma) | GI50 (SK-MEL-28 melanoma) | TGI (SK-MEL-28 melanoma) | GI50 (SN12C renal) | TGI (SN12C renal) | GI50 (UACC-62 melanoma) | TGI (UACC-62 melanoma)
1 | O=C1OCC2=C1C(c1ccccc1)c1cc3c(cc1N2CCO)OCO3 (stereo not given) | 1.79 µM | > 50 µM | 2.37 µM | > 50 µM | 7 µM | > 50 µM | 1.92 µM | 23.3 µM | 1.09 µM | > 50 µM | 8.03 µM | 35.7 µM | 2.72 µM | > 50 µM | > 50 µM | > 50 µM | 20.2 µM | > 50 µM | 2.53 µM | > 50 µM
2 | O=c1oc2ccccc2[n+]([O-])c1-c1ccccc1 | – | > 100 µM | – | > 100 µM | – | > 100 µM | – | > 100 µM | – | > 100 µM | – | > 100 µM | – | > 100 µM | – | > 100 µM | – | > 100 µM | – | > 100 µM
3 | Cc1ccc(NC(=O)c2cc(S(=O)(=O)N3C(=O)NC(=O)NS3(=O)=O)c(S)cc2Cl)cc1 | 30.3 µM | > 100 µM | 22.2 µM | 52.2 µM | 20.7 µM | 56.1 µM | 24.6 µM | 66.8 µM | 36.1 µM | > 100 µM | 11.5 µM | 54.5 µM | 28.3 µM | 85.3 µM | 34.4 µM | > 100 µM | 31.2 µM | > 100 µM | 15.7 µM | 36 µM
4 | O=C(O)[C@@H](Cc1ccc2ccccc2c1)NC(=O)n1c2ccccc2c2ccccc21 | 2.32 µM | 11.8 µM | 2.18 µM | 14.3 µM | 3.63 µM | 20 µM | 3.25 µM | 19.5 µM | 0.356 µM | 2.21 µM | 1.57 µM | 7.15 µM | 4.19 µM | 43.3 µM | 11.4 µM | 46.8 µM | 3.94 µM | 17.7 µM | 0.435 µM | 16.1 µM
5 | COc1ccc(C(=O)NCCN(C)C)c2nc3ccccc3nc12 | – | 12.8 µM | – | 32.4 µM | – | 6.48 µM | – | > 34.5 µM | – | > 100 µM | – | 25.4 µM | – | 11.8 µM | – | 16.8 µM | – | 80.1 µM | – | 17.8 µM
6 | CC(=O)c1ccc(O)c(CN(C2CCCCC2)C2CCCCC2)c1O | – | > 100 µM | – | > 100 µM | – | > 100 µM | – | > 100 µM | – | > 100 µM | – | > 100 µM | – | > 100 µM | – | > 100 µM | – | > 100 µM | – | > 100 µM
7 | O=C(/C=C/c1ccccc1)c1ccc(NCc2nc3ccccc3[nH]2)cc1 | – | 13 µM | – | 4.54 µM | – | 3.76 µM | – | 21.4 µM | – | 14.7 µM | – | 16.8 µM | – | 25.5 µM | – | 32.6 µM | – | 15.4 µM | – | 21.4 µM
8 | c1ccc(N2N=C(c3ccco3)CC2c2ccco2)cc1 (stereo not given) | – | > 100 µM | – | > 100 µM | – | > 100 µM | – | > 100 µM | – | > 100 µM | – | > 100 µM | – | > 100 µM | – | > 100 µM | – | > 100 µM | – | > 100 µM
